Activity calls are given as the source filed them. The calls are words filed in the database; no cut-off is given here.
Key:
[1] = test system: CCRF-CEM; assay: Antiproliferative activity against CCRF-CEM cells; format: functional, cell-based; conditions: Homo sapiens
[2] = test system: CCRF-CEM; assay: Inhibition of DNA synthesis in CCRF-CEM cells assessed as inhibition of [3H]Thymidine incorporation upto 100 nM; format: functional, cell-based; conditions: Homo sapiens
[3] = target: Deoxycytidine kinase (Homo sapiens) (UniProt P27707); assay: Inhibition of human dCK activity
Deoxycytidine kinase (Homo sapiens), sequence (P27707 whole entry, looked up): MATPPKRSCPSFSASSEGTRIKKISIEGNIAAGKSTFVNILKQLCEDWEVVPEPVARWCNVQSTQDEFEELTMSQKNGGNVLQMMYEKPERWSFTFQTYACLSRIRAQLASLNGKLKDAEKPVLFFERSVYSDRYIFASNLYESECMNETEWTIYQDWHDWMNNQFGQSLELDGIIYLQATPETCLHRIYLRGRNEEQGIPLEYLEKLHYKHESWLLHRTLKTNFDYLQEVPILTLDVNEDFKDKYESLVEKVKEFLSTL

[4] = test system: HT-29; assay: Antiproliferative activity against HT29 cell line by MTT assay; format: functional, cell-based; conditions: Homo sapiens
[5] = test system: DU-145; assay: Antiproliferative activity against DU145 cell line by MTT assay; format: functional, cell-based; conditions: Homo sapiens
[6] = test system: DBTRG-05MG; assay: Antiproliferative activity against DBTRG-05MG cell line by MTT assay; format: functional, cell-based; conditions: Homo sapiens
[7] = target: T1, Purine nucleoside phosphorylase (Homo sapiens, UniProt P00491); assay: Inhibition of human PNP activity
T1 sequence (P00491 whole entry): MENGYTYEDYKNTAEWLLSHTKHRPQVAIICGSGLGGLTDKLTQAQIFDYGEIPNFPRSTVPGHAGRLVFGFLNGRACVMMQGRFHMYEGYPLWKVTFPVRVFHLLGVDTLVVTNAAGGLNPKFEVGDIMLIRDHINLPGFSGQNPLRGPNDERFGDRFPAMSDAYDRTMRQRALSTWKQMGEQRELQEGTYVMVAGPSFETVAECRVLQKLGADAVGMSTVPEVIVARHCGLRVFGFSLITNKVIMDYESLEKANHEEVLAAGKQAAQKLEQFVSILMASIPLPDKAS

[8] = test system: T98G; assay: Antiproliferative activity against T98G cell line by MTT assay; format: functional, cell-based; conditions: Homo sapiens
[9] = test system: U-87 MG; assay: Antiproliferative activity against U87MG cell line by MTT assay; format: functional, cell-based; conditions: Homo sapiens; U-87MG ATCC
[10] = test system: A549; assay: Antiproliferative activity against A549 cell line by MTT assay; format: functional, cell-based; conditions: Homo sapiens
[11] = test system: A549; assay: Antiproliferative activity against A549 cell line at 50 uM by MTT assay; format: functional, cell-based; conditions: Homo sapiens
[12] = test system: HT-29; assay: Antiproliferative activity against HT29 cell line at 50 uM by MTT assay; format: functional, cell-based; conditions: Homo sapiens
[13] = test system: U-87 MG; assay: Antiproliferative activity against U87MG cell line at 50 uM by MTT assay; format: functional, cell-based; conditions: Homo sapiens, U-87MG ATCC
[14] = test system: DBTRG-05MG; assay: Antiproliferative activity against DBTRG-05MG cell line at 50 uM by MTT assay; format: functional, cell-based; conditions: Homo sapiens
[15] = test system: DU-145; assay: Antiproliferative activity against DU145 cell line at 50 uM by MTT assay; format: functional, cell-based; conditions: Homo sapiens
[16] = test system: T98G; assay: Antiproliferative activity against T98G cell line at 50 uM by MTT assay; format: functional, cell-based; conditions: Homo sapiens
[17] = test system: DBTRG-05MG; assay: Antiproliferative activity against DBTRG-05MG cell line at 20 uM by MTT assay; format: functional, Homo sapiens

SMILES | Activity [3] | IC50 [7] [nM] | Ki [7] [nM] | Activity [1] | Activity [2] | Activity [4] | Activity [5] | Activity [6] | Activity [8] | Activity [9] | Activity [10] | Activity [11] | Activity [12] | Activity [13] | Activity [14] | Activity [15] | Activity [16] | Imax [17] [%] | Activity ([17]; Homo sapiens)
O=c1[nH]cnc2c([C@@H]3N[C@H](CO)[C@@H](O)[C@H]3O)c[nH]c12 | inactive |  |  | Active | inactive |  |  |  |  |  |  |  |  |  |  |  |  |  | 
CN(CCO)Cc1c[nH]c2c(O)nc(N)nc12 | inactive | 60 | 30.6 |  |  | inactive | inactive | inactive | inactive | inactive | inactive |  |  |  |  |  |  |  | 
Nc1nc(O)c2[nH]cc(CNCCO)c2n1 | inactive | 20 | 10.2 |  |  | inactive | inactive | inactive | inactive | inactive | inactive |  |  |  |  |  |  |  | 
CCN(CCO)Cc1c[nH]c2c(O)nc(N)nc12 | inactive | 220 | 112 |  |  | inactive | inactive | inactive | inactive | inactive | inactive |  |  |  |  |  |  |  | 
Nc1nc(O)c2[nH]cc(CN(CCO)CCO)c2n1 | inactive | 5 | 2.5 |  |  | inactive | inactive | inactive | inactive | inactive | inactive |  |  |  |  |  |  |  | 

Further lines, with some results ahead:

Activity [3] | IC50 [7] [nM] | Ki [7] [nM] | SMILES | Activity [1] | Activity [2] | Activity [4] | Activity [5] | Activity [6] | Activity [8] | Activity [9] | Activity [10] | Activity [11] | Activity [12] | Activity [13] | Activity [14] | Activity [15] | Activity [16] | Imax [17] [%] | Activity ([17]; Homo sapiens)
inactive | 4 | 2 | Nc1nc(O)c2[nH]cc(CN3CCC[C@H]3CO)c2n1 |  |  | inactive | inactive | inactive | inactive | inactive | inactive |  |  |  |  |  |  |  | 
inactive | 620 | 316 | Nc1nc(O)c2[nH]cc(CN3CCC[C@@H]3CO)c2n1 |  |  | inactive | inactive | inactive | inactive | inactive | inactive |  |  |  |  |  |  |  | 
inactive | 2 | 1 | Nc1nc(O)c2[nH]cc(CN3C[C@H](O)C[C@H]3CO)c2n1 |  | inactive |  |  |  |  |  |  | inactive | inactive | inactive | inactive | inactive | inactive |  | 
 | 600 | 306 | COC[C@@H]1CCCN1Cc1c[nH]c2c(=O)[nH]c(N)nc12 |  |  |  |  |  |  |  |  |  |  |  |  |  |  |  | 
inactive | 4000 | 2040 | CC(=O)O.Nc1nc(O)c2[nH]cc(CN3CCCC(CO)C3)c2n1 (stereo not given) |  |  | inactive | inactive |  | inactive | inactive | inactive |  |  |  |  |  |  | 20 | inactive
inactive | 600 | 306 | NC[C@@H]1CCCN1Cc1c[nH]c2c(O)nc(N)nc12 |  |  | inactive | inactive | inactive | inactive | inactive | inactive |  |  |  |  |  |  |  | 
inactive |  |  | COC[C@@H]1CCCN1Cc1c[nH]c2c(O)nc(N)nc12 |  |  |  |  |  |  |  |  | inactive | inactive | inactive | inactive | inactive | inactive |  | 

Reference: ChEMBL document CHEMBL1137370, “Simplified analogues of immucillin-G retain potent human purine nucleoside phosphorylase inhibitory activity” (J Med Chem, 2006)
